Laboratory results reported in ChEMBL document CHEMBL5291721, “A preclinical secondary pharmacology resource illuminates target-adverse drug reaction associations of marketed drugs” (Nat Commun, 2023).

Columns and labels:
[1] = molecular target: Beta-2 adrenergic receptor (Homo sapiens, UniProt P07550)
Estrogen receptor = molecular target: T1, Estrogen receptor (Homo sapiens, UniProt P03372)
T1 sequence (P03372 whole entry): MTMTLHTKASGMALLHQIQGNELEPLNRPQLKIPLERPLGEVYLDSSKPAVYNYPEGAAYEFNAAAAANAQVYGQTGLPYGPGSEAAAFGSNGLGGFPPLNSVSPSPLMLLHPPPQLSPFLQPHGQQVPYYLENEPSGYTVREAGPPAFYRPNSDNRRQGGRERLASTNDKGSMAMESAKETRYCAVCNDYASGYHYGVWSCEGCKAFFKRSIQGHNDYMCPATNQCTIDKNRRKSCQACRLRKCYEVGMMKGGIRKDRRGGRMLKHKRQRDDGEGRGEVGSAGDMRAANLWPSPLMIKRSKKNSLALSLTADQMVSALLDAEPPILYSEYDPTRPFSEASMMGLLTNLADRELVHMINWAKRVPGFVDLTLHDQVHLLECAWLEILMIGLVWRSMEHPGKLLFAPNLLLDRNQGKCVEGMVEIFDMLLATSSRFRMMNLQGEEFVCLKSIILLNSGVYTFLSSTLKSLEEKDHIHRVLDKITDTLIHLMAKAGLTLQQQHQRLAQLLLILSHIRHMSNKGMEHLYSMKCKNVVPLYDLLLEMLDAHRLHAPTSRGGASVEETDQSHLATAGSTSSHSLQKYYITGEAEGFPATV

Progesterone receptor = molecular target: T2, Progesterone receptor (Homo sapiens, UniProt P06401); format: functional
T2 sequence (P06401 whole entry): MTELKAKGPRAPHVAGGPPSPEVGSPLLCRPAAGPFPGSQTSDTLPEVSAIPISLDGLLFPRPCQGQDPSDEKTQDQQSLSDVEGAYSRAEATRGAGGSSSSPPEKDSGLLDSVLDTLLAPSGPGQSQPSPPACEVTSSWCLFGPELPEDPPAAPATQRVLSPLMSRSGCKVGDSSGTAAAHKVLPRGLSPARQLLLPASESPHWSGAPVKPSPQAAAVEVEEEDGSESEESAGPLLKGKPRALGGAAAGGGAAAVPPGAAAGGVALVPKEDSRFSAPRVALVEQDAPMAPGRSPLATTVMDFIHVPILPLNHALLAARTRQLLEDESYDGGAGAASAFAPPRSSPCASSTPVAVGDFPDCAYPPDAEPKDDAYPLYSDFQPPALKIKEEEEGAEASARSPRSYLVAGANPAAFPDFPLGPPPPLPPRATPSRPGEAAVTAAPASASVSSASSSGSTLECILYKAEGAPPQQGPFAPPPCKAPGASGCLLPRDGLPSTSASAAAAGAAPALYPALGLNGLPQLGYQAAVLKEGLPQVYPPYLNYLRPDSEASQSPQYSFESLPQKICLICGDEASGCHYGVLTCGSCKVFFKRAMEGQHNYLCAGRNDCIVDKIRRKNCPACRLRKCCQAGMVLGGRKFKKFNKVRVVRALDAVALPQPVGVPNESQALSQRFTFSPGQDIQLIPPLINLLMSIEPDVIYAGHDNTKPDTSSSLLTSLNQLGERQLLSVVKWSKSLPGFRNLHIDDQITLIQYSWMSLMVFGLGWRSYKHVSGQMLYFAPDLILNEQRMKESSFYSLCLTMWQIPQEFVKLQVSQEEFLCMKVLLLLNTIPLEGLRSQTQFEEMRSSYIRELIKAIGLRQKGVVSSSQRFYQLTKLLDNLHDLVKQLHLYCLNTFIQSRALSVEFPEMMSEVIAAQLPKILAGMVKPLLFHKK

[2] = molecular target: 5-hydroxytryptamine receptor 2B (Homo sapiens, UniProt P41595); format: functional, cell-based
Glucocorticoid receptor = molecular target: T3, Glucocorticoid receptor (Homo sapiens, UniProt P04150)
T3 sequence (P04150 whole entry): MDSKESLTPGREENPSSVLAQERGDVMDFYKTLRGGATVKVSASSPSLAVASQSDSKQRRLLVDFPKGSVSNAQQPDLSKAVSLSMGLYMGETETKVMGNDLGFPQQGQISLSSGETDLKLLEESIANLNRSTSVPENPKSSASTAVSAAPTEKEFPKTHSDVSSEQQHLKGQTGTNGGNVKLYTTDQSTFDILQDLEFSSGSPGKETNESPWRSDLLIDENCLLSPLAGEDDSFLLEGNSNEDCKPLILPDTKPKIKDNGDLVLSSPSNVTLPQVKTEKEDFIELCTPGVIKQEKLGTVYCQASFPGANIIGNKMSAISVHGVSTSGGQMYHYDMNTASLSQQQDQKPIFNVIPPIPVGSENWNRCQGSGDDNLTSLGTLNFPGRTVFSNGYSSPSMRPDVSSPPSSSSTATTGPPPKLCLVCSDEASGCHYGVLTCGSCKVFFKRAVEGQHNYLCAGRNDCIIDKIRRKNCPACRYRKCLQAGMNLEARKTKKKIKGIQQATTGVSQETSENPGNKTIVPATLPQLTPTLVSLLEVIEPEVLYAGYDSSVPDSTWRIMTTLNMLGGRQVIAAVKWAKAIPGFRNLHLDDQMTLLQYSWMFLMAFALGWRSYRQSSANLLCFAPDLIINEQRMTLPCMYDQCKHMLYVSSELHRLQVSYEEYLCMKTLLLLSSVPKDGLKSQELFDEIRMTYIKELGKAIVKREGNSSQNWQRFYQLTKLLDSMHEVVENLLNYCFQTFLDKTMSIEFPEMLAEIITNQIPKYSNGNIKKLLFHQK

[3] = molecular target: Growth hormone secretagogue receptor type 1 (Homo sapiens, UniProt Q92847)
[4] = molecular target: T4, Alpha-1A adrenergic receptor (Homo sapiens, UniProt P35348); format: functional, cell-based
T4 sequence (P35348 whole entry): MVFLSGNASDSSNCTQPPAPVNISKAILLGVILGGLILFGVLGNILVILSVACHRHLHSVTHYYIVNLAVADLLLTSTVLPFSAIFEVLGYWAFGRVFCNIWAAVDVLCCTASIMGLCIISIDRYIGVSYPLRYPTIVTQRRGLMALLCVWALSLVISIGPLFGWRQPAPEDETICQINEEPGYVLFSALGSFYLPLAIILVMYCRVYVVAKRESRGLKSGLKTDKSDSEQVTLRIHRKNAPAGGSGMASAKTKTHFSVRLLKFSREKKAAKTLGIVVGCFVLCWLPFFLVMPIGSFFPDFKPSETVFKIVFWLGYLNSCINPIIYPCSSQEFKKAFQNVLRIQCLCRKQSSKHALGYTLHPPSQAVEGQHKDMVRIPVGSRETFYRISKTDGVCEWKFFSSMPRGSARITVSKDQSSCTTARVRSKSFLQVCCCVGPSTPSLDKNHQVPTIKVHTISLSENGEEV

Vasopressin V1a receptor = Vasopressin V1a receptor (Homo sapiens, UniProt P37288)
[5] = molecular target: Muscarinic acetylcholine receptor M3 (Homo sapiens, UniProt P20309)
Also: assay procedure not described here.

Chain of Beta-2 adrenergic receptor (P07550 whole entry): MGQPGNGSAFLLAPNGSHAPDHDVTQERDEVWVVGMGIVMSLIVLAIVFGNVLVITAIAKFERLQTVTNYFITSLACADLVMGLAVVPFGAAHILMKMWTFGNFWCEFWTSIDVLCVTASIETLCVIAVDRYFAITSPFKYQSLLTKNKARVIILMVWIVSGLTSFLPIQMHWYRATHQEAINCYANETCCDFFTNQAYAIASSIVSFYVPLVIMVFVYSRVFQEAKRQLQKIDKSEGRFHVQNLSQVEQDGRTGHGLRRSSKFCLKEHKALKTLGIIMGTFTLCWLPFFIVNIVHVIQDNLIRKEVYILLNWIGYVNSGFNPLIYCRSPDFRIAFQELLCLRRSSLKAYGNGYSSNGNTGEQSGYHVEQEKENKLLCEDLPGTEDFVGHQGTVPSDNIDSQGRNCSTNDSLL
Chain of Vasopressin V1a receptor (P37288 whole entry): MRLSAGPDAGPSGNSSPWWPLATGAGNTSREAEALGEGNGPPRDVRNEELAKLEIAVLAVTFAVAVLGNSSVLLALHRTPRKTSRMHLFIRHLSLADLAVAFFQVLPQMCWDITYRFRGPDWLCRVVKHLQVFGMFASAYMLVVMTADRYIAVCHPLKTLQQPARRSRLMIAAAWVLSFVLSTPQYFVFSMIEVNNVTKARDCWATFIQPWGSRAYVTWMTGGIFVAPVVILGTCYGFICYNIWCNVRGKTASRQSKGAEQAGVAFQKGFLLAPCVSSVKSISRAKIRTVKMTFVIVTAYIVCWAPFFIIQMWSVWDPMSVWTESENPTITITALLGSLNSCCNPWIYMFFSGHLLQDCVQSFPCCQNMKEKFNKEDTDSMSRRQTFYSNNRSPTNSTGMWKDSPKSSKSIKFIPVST
Chain of 5-hydroxytryptamine receptor 2B (P41595 whole entry): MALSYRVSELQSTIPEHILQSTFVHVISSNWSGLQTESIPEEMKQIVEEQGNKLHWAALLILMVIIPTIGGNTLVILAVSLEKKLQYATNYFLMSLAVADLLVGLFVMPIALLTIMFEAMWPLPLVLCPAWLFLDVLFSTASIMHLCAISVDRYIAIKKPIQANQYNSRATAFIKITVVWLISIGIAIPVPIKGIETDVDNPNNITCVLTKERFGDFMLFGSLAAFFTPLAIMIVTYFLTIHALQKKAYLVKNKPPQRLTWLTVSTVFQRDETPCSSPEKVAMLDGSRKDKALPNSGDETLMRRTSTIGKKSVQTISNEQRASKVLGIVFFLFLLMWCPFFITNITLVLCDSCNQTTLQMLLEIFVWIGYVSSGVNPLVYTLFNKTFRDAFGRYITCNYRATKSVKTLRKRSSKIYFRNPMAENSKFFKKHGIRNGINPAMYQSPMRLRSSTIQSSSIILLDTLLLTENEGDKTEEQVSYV
Chain of Growth hormone secretagogue receptor type 1 (Q92847 whole entry): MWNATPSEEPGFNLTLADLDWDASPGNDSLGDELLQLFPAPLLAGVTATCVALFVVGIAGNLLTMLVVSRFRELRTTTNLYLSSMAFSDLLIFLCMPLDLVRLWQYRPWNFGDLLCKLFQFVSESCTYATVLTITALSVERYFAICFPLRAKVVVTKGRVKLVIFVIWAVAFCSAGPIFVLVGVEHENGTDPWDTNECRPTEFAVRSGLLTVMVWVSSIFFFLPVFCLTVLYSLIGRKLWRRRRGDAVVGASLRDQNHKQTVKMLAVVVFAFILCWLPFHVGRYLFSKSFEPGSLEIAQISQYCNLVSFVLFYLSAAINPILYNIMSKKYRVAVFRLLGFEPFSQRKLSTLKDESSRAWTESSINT
Chain of Muscarinic acetylcholine receptor M3 (P20309 whole entry): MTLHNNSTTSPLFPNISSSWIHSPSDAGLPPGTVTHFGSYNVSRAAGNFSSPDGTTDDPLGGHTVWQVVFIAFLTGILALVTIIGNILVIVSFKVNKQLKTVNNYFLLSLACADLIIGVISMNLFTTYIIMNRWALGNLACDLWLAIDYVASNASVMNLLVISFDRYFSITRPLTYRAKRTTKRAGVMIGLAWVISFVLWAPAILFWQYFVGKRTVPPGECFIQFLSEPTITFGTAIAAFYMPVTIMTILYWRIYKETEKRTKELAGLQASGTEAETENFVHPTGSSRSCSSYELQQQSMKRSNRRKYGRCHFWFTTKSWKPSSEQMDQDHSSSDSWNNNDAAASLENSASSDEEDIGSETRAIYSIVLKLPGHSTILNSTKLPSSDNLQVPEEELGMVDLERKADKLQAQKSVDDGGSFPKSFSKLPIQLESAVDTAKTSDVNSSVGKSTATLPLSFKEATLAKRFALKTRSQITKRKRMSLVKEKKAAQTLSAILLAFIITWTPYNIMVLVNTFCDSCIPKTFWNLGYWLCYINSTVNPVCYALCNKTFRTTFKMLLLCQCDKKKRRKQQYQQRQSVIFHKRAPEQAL

| Compound | AC50 [1] | AC50 (Estrogen receptor) | AC50 (Progesterone receptor) | AC50 [2] | AC50 (Glucocorticoid receptor) | AC50 [3] | AC50 [4] | AC50 (Vasopressin V1a receptor) | AC50 [5] |
| --- | --- | --- | --- | --- | --- | --- | --- | --- | --- |
| COc1ccc(/C=C/C(=O)Nc2ccccc2C(=O)O)cc1OC | > 30 µM | > 30 µM | > 30 µM | > 30 µM | > 30 µM | > 30 µM |  |  |  |
| CCC(=O)OCC(=O)[C@@]1(OC(=O)CC)[C@@H](C)C[C@H]2[C@@H]3CCC4=CC(=O)C=C[C@]4(C)[C@@]3(F)[C@@H](O)C[C@@]21C [BETAMETHASONE DIPROPIONATE] | > 30 µM | > 10 µM |  | > 30 µM |  | > 30 µM | > 30 µM | > 30 µM | > 30 µM |
| CS(=O)(=O)OCCCCOS(C)(=O)=O [BUSULFAN] |  | > 30 µM | > 30 µM | > 30 µM |  | > 30 µM | > 30 µM |  |  |
| CCCCC1(CC)C(=O)NC(=O)NC1=O [BUTETHAL] |  | > 30 µM | > 30 µM | > 30 µM | > 30 µM | > 30 µM | > 30 µM | > 30 µM | > 30 µM |
| CCCC(C)(COC(N)=O)COC(=O)NC(C)C (centres undefined) [CARISOPRODOL] | > 10 µM | > 30 µM |  | > 10 µM |  | > 30 µM | > 30 µM | > 10 µM | > 10 µM |
| C=CC1=C(C(=O)O)N2C(=O)[C@@H](NC(=O)/C(=N\OCC(=O)O)c3csc(N)n3)[C@H]2SC1 [CEFIXIME] |  | > 30 µM | > 30 µM | > 30 µM |  | > 30 µM | > 30 µM | > 30 µM |  |
| CO[C@@]1(NC(=O)Cc2cccs2)C(=O)N2C(C(=O)O)=C(COC(N)=O)CS[C@@H]21 [CEFOXITIN] |  | > 30 µM | > 30 µM | > 30 µM |  | > 30 µM | > 30 µM | > 30 µM | > 30 µM |
| CCN(CC)CCOC(=O)c1ccc(N)cc1Cl [CHLOROPROCAINE] |  | > 30 µM | > 30 µM | > 30 µM | > 30 µM | > 30 µM | > 30 µM | > 30 µM | 18 µM |
| CC(=O)OCC(CCn1cnc2cnc(N)nc21)COC(C)=O [FAMCICLOVIR] | > 10 µM | > 30 µM |  | > 10 µM | > 30 µM | > 30 µM | > 30 µM | > 10 µM |  |
| O=C(O)c1ccccc1OP(=O)(O)O [FOSFOSAL] |  | > 30 µM | > 30 µM | > 30 µM | > 30 µM | > 30 µM | > 30 µM | > 30 µM | > 30 µM |
